Experiments:
[1] = test system: macrophage; assay: mRNA abundance of other pro-angiogenic factors in macrophages (RT-PCR); format: cell-based, mouse; conditions: FTO inhibition
Description: Total RNA was extracted from mouse BMDMs or eye tissues with TRIzol™ Reagent (Thermo Fisher Scientific, 15596018, USA) and quantified by using a NanoDrop 2000 spectrophotometer (Thermo-Fisher Scientific, USA). Reverse transcription was performed using the QuantiTect Reverse Transcription kit (205313, QIAGEN). Target genes were amplified by real-time quantitative polymerase chain reaction (PCR) (Applied Biosystems, 7900 HT Fast Real-Time PCR system) with Power SYBR Green Master Mix. Relative gene expression was determined by the 2^−ΔΔCt method, and 18S rRNA or GAPDH (glyceraldehyde-3-phosphate dehydrogenase) was used as an internal control.

[2] = test system: Wild type C57BL/6J mice; assay: Serum cytokines release in the LPS model of sepsis (ELISA); format: in vivo, mouse; conditions: FTOi 20 mg/kg i.p., 10 mg/kg LPS, serum at 10 hours after LPS
Description: (§1) Secreted IL-6 in the BMDMs medium or serum IL-6, TNF-alpha, and IL-1alpha were detected by ELISA (Mouse IL-1 alpha/IL-1F1 DuoSet, R&D Systems, DY400; Mouse IL-6 DuoSet, R&D Systems, DY406; Mouse TNF-alpha DuoSet, R&D Systems, DY410) according to the manufacturer's instructions.
To induced septic shock model, male or female C57BL/6 mice (6 to 10 weeks old) were primed with 10 mg/kg poly(I:C) via intraperitoneal injection. 6 hours later, primed mice were injected with 10 mg/kg LPS and monitored three time daily for a total 5 days. For FTO inhibitor treatment, Wild type C57BL/6J mice were pretreated with 20 mg/kg FB23-2 for 16 hours before sepsis induction. Next day, 20 mg/kg FB23-2 together with 10 mg/kg poly(I:C) were intraperitoneally injected, following with LPS challenge at 6 hours after poly(I:C) priming.

[3] = test system: Wild type BMDMs; assay: LPS-induced IL-6 release on BMDMs (ELISA); format: cell-based, mouse; conditions: FB23-2 20 uM pre-treatment 1 hour, then 250 ng/ml LPS 6 hours, p<0.0001
Description: Primary WT or mutant mouse bone marrow derived macrophages (BMDMs) were isolated as previously described (4). BMDMs were cultured in IMDM (Gibco) basal medium containing 10% fetal bovine serum (FBS), 30% L929 supernatants, nonessential amino acids, sodium pyruvate, 2-mercaptoethanol, and antibiotics. THP-1 cells were cultured in RPMI 1640 medium with 10% FBS and antibiotics. Human RPE cells were isolated as previously described and cultured in DMEM medium with 10% FBS and antibiotics. All cells were maintained at 37° C. in a 5% CO2 environment.
as §1

[4] = In vivo retinal toxicity; conditions: FTO inhibition

For `Cc1noc(C)c1-c1cc(Cl)c(Nc2ccccc2C(=O)NO)c(Cl)c1` [FB23-2], the “mRNA abundance of other pro-angiogenic factors (Plgf, Pdgfa)” value [1] was “did not significantly alter the mRNA abundance”, the “Serum cytokines release (IL-6, TNF-α, IL-1α)” value [2] was “impairs serum cytokines release” and the “LPS-induced IL-6 release” value [3] was “reduces LPS-induced IL-6 release”. For the same compound, the “In vivo retinal toxicity” value [4] was “did not observe in vivo retinal toxicity”.
